Source: patent US20250340575A1, “4-AMINOPYRROLO[2,1-F][1,2,4]TRIAZINES AND PREPARATION AND USES THEREOF” (Biosplice Therapeutics, Inc., priority 2024, published 2025)

Biological target: recombinant DYRK1A kinase (Homo sapiens, UniProt Q13627)
Assay: DYRK1A kinase assay (Ser/Thr 18 peptide Z-lyte FRET)
Assay type: biochemical
Details: DYRK1A 0.25 μg/mL, ATP 15 μM, Ser/Thr peptide 18 4 μM, one hour at room temperature, 11-point dose-response from 10 μM
Procedure: Representative compounds were screened using the assay procedure for DYRK1A kinase activity as described below.
Each compound was dissolved in DMSO as a 10 mM stock and used to prepare compound source plates. Serial dilution (1:3, 11-point dose-response curves from 10 μM to 0.00016 μM) and compound transfer was performed using the ECHO 550 (Labcyte, Sunnyvale, CA) into 1536-well black-walled round bottom plates (Corning).
The DYRK1A kinase assay was run using the Ser/Thr 18 peptide Z-lyte assay kit according to manufacturer's instructions (Life Technologies—a Division of Thermo-Fisher). This is a non-radioactive assay using fluorescence resonance energy transfer (FRET) between coumarin and fluorescein to detect kinase activity which is represented as a ratio of coumarin emission/fluorescein emission.
Briefly, recombinant DYRK1A kinase, ATP and Ser/Thr peptide 18 were prepared in 1× Kinase buffer to final concentrations of 0.25 μg/mL, 15 μM, and 4 μM respectively. The mixture was allowed to incubate with the representative compounds for one hour at room temperature. All reactions were performed in duplicate. Unphosphorylated (“0% Control”) and phosphorylated (“100% control”) forms of Ser/Thr 18 served as control reactions. Additionally, an 11-point dose-response curve of Staurosporine (1 uM top) was run to serve as a positive compound control.
After incubation, Development Reagent A was diluted in Development Buffer then added to the reaction and allowed to further incubate for one hour at room temperature. The plate was read at Ex 400 Em 455 to detect the coumarin signal and Ex 400 Em 520 to measure the signal (EnVision Multilabel Plate Reader, PerkinElmer).
The Emission ratio (Em) was calculated as a ratio of the coumarin (C) emission signal (at 445 nm)/Fluorescein (F) emission signal (at 520 nm). The percent phosphorylation was then calculated using the following formula: [1−((Em ratio×F100%)−C100%)/((C0%−C100%)+(Em ratio×(F100%−F0%)))]. Dose-response curves were generated, and inhibitory concentration (IC50) values were calculated using non-linear regression curve fit in the Dotmatics' Studies Software (Bishops Stortford, UK).

IC50 | Compound
1 nM | CN1C[C@@H](Nc2nc(N)c3c(-c4ccc5ncn(CC(F)(F)F)c5n4)ccn3n2)C(F)(F)C1 [Compound 124, (R)—N^2-(4,4-Difluoro-1-methylpyrrolidin-3-yl)-5-(3-(2,2,2-trifluoroethyl)-3H-imidazo[4,5-b]pyridin-5-yl)pyrrolo[2,1-f][1,2,4]triazine-2,4-diamine]
1.7 nM | CN1CC[C@H](Nc2nc(N)c3c(-c4ccc5ncn(CC(F)(F)F)c5n4)ccn3n2)[C@H](F)C1 [Compound 125, N^2-((3R,4S)-3-Fluoro-1-methylpiperidin-4-yl)-5-(3-(2,2,2-trifluoroethyl)-3H-imidazo[4,5-b]pyridin-5-yl)pyrrolo[2,1-f][1,2,4]triazine-2,4-diamine]
1.3 nM | COCCN1CC[C@H](Nc2nc(N)c3c(-c4ccc5ncn(CC(F)(F)F)c5n4)ccn3n2)[C@H](F)C1 [Compound 126, N^2-((3R,4S)-3-Fluoro-1-(2-methoxyethyl)piperidin-4-yl)-5-(3-(2,2,2-trifluoroethyl)-3H-imidazo[4,5-b]pyridin-5-yl)pyrrolo[2,1-f][1,2,4]triazine-2,4-diamine]
1.5 nM | CC(=O)N1CC[C@H](Nc2nc(N)c3c(-c4ccc5ncn(CC(F)(F)F)c5n4)ccn3n2)[C@H](F)C1 [Compound 127, 1-((3R,4S)-4-((4-Amino-5-(3-(2,2,2-trifluoroethyl)-3H-imidazo[4,5-b]pyridin-5-yl)pyrrolo[2,1-f][1,2,4]triazin-2-yl)amino)-3-fluoropiperidin-1-yl)ethan-1-one]
1.4 nM | Nc1nc(N[C@@H]2CCN(C3COC3)C[C@@H]2F)nn2ccc(-c3ccc4ncn(CC(F)(F)F)c4n3)c12 [Compound 128, N^2-((3S,4R)-3-Fluoro-1-(oxetan-3-yl)piperidin-4-yl)-5-(3-(2,2,2-trifluoroethyl)-3H-imidazo[4,5-b]pyridin-5-yl)pyrrolo[2,1-f][1,2,4]triazine-2,4-diamine]
1.4 nM | Nc1nc(N[C@H]2CCN(C3COC3)C[C@H]2F)nn2ccc(-c3ccc4ncn(CC(F)(F)F)c4n3)c12 [Compound 129, N^2-((3R,4S)-3-Fluoro-1-(oxetan-3-yl)piperidin-4-yl)-5-(3-(2,2,2-trifluoroethyl)-3H-imidazo[4,5-b]pyridin-5-yl)pyrrolo[2,1-f][1,2,4]triazine-2,4-diamine]
4.7 nM | Nc1nc(N[C@@H]2CCN(C3COC3)CC2(F)F)nn2ccc(-c3ccc4ncn(CC(F)(F)F)c4n3)c12 [Compound 131, (R)—N^2-(3,3-Difluoro-1-(oxetan-3-yl)piperidin-4-yl)-5-(3-(2,2,2-trifluoroethyl)-3H-imidazo[4,5-b]pyridin-5-yl)pyrrolo[2,1-f][1,2,4]triazine-2,4-diamine]
1.2 nM | CNc1nc(N[C@H]2C[C@](C)(O)C2)nn2ccc(-c3ccc4ncn(CC(F)(F)F)c4n3)c12 [Compound 132, (1r,3r)-1-Methyl-3-((4-(methylamino)-5-(3-(2,2,2-trifluoroethyl)-3H-imidazo [4,5-b]pyridin-5-yl)pyrrolo[2,1-f][1,2,4]triazin-2-yl)amino)cyclobutan-1-ol]
5 nM | CNc1nc(N[C@H]2CCN(C(C)=O)C[C@H]2F)nn2ccc(-c3ccc4nc(C)n(C(F)F)c4n3)c12 [Compound 134]
6.4 nM | CNc1nc(N[C@H]2CCN(C3COC3)C[C@H]2F)nn2ccc(-c3ccc4nc(C)n(C(F)F)c4n3)c12 [Compound 135, 5-(3-(Difluoromethyl)-2-methyl-3H-imidazo[4,5-b]pyridin-5-yl)-N^2-((3R,4S)-3-fluoro-1-(oxetan-3-yl)piperidin-4-yl)-N^4-methylpyrrolo[2,1-f][1,2,4]triazine-2,4-diamine]
3.4 nM | Cc1nc2ccc(-c3ccn4nc(N[C@@H]5CCN(C6COC6)C[C@@H]5F)nc(N)c34)nc2n1CCF [Compound 141, N^2-((3S,4R)-3-Fluoro-1-(oxetan-3-yl)piperidin-4-yl)-5-(3-(2-fluoroethyl)-2-methyl-3H-imidazo[4,5-b]pyridin-5-yl)pyrrolo[2,1-f][1,2,4]triazine-2,4-diamine]
2.7 nM | Cc1nc2ccc(-c3ccn4nc(N[C@@H]5CCN(C)CC5(F)F)nc(N)c34)nc2n1CCF [Compound 142, (R)—N^2-(3,3-Difluoro-1-methylpiperidin-4-yl)-5-(3-(2-fluoroethyl)-2-methyl-3H-imidazo[4,5-b]pyridin-5-yl)pyrrolo[2,1-f][1,2,4]triazine-2,4-diamine]
1.3 nM | Cc1nc2ccc(-c3c(F)cn4nc(N[C@H]5CC[C@](C)(O)CC5)nc(N)c34)nc2n1CCF [Compound 143, (1r,4r)-4-((4-Amino-6-fluoro-5-(3-(2-fluoroethyl)-2-methyl-3H-imidazo[4,5-b]pyridin-5-yl)pyrrolo[2,1-f][1,2,4]triazin-2-yl)amino)-1-methylcyclohexan-1-ol]
4.2 nM | CC(=O)N1CC[C@H](Nc2nc(N)c3c(-c4ccc5nc(C)n(CCF)c5n4)c(F)cn3n2)[C@H](F)C1 [Compound 144, 1-((3R,4S)-4-((4-Amino-6-fluoro-5-(3-(2-fluoroethyl)-2-methyl-3H-imidazo [4,5-b]pyridin-5-yl)pyrrolo[2,1-f][1,2,4]triazin-2-yl)amino)-3-fluoropiperidin-1-yl)ethan-1-one]
1.7 nM | Cc1nc2ccc(-c3c(F)cn4nc(N[C@H]5CCN(C6COC6)C[C@H]5F)nc(N)c34)nc2n1CCF [Compound 145, 6-Fluoro-N2-((3R,4S)-3-fluoro-1-(oxetan-3-yl)piperidin-4-yl)-5-(3-(2-fluoroethyl)-2-methyl-3H-imidazo[4,5-b]pyridin-5-yl)pyrrolo[2,1-f][1,2,4]triazine-2,4-diamine]
0.8 nM | Cc1nc2ccc(-c3c(F)cn4nc(N[C@@H]5CCN(C)CC5(F)F)nc(N)c34)nc2n1CCF [Compound 146, (R)—N^2-(3,3-Difluoro-1-methylpiperidin-4-yl)-6-fluoro-5-(3-(2-fluoroethyl)-2-methyl-3H-imidazo[4,5-b]pyridin-5-yl)pyrrolo[2,1-f][1,2,4]triazine-2,4-diamine]
1.4 nM | CC(=O)N1CC[C@@H](Nc2nc(N)c3c(-c4ccc5nc(C)n(CCF)c5n4)c(F)cn3n2)C(F)(F)C1 [Compound 147, (R)-1-(4-((4-Amino-6-fluoro-5-(3-(2-fluoroethyl)-2-methyl-3H-imidazo[4,5-b]pyridin-5-yl)pyrrolo[2,1-f][1,2,4]triazin-2-yl)amino)-3,3-difluoropiperidin-1-yl)ethan-1-one]
0.8 nM | Cc1nc2ccc(-c3c(F)cn4nc(N[C@@H]5CCN(C6COC6)CC5(F)F)nc(N)c34)nc2n1CCF [Compound 149, (R)—N^2-(3,3-Difluoro-1-(oxetan-3-yl)piperidin-4-yl)-6-fluoro-5-(3-(2-fluoroethyl)-2-methyl-3H-imidazo[4,5-b]pyridin-5-yl)pyrrolo[2,1-f][1,2,4]triazine-2,4-diamine]
15.8 nM | CNc1nc(N[C@H]2CCN(C3COC3)C[C@H]2F)nn2ccc(-c3ccc4nc(C)n(CCF)c4n3)c12 [Compound 157, N^2-((3R,4S)-3-Fluoro-1-(oxetan-3-yl)piperidin-4-yl)-5-(3-(2-fluoroethyl)-2-methyl-3H-imidazo[4,5-b]pyridin-5-yl)-N^4-methylpyrrolo[2,1-f][1,2,4]triazine-2,4-diamine]
2.2 nM | CNc1nc(N[C@@H]2CCN(C3COC3)CC2(F)F)nn2ccc(-c3ccc4nc(C)n(CCF)c4n3)c12 [Compound 160, (R)—N^2-(3,3-Difluoro-1-(oxetan-3-yl)piperidin-4-yl)-5-(3-(2-fluoroethyl)-2-methyl-3H-imidazo[4,5-b]pyridin-5-yl)-N^4-methylpyrrolo[2,1-f][1,2,4]triazine-2,4-diamine]
3.1 nM | CNc1nc(N[C@H]2CC[C@](C)(O)CC2)nn2cc(F)c(-c3ccc4nc(C)n(CCF)c4n3)c12 [Compound 162, (1r,4r)-4-((6-Fluoro-5-(3-(2-fluoroethyl)-2-methyl-3H-imidazo[4,5-b]pyridin-5-yl)-4-(methylamino)pyrrolo[2,1-f][1,2,4]triazin-2-yl)amino)-1-methylcyclohexan-1-ol]
1.3 nM | CNc1nc(N[C@H]2CCN(C(C)=O)C[C@H]2F)nn2cc(F)c(-c3ccc4nc(C)n(CCF)c4n3)c12 [Compound 163, 1-((3R,4S)-3-Fluoro-4-((6-fluoro-5-(3-(2-fluoroethyl)-2-methyl-3H-imidazo [4,5-b]pyridin-5-yl)-4-(methylamino)pyrrolo[2,1-f][1,2,4]triazin-2-yl)amino)piperidin-1-yl)ethan-1-one]
1.8 nM | CNc1nc(N[C@H]2CCN(C3COC3)C[C@H]2F)nn2cc(F)c(-c3ccc4nc(C)n(CCF)c4n3)c12 [Compound 164, 6-Fluoro-N^2-((3R,4S)-3-fluoro-1-(oxetan-3-yl)piperidin-4-yl)-5-(3-(2-fluoroethyl)-2-methyl-3H-imidazo[4,5-b]pyridin-5-yl)-N^4-methylpyrrolo[2,1-f][1,2,4]triazine-2,4-diamine]
